# Reference: US5618795A, “Dibekacin derivatives and arbekacin derivatives active against resistant bacteria, and the production thereof” (Zaidan Hojin Biseibutsu Kagaku Kenkyu Kai, priority 1992, dated 1997)
# Where two headings read alike, the source gives them in different places.
# Columns and labels:
# [1] = Acute toxicity, single intravenous administration to mice; type: in vivo; details: mouse, in vivo; single intravenous administration; mice (ICR-strain, 4 weeks old, female); observations for two weeks; read-out: LD50
# Excerpt: 50% Lethal dosages (LD50, observations for two weeks) of the new compounds of this invention as estimated upon single intravenous administration to mice (ICR-strain, 4 weeks old, female) are as follows:
# 50% Lethal dosages (LD50, observations for two weeks) of the new compounds of general formula (XVI) according to the seventh aspect of this invention as estimated upon single intravenous administration to mice (ICR-strain, 4 weeks old, female) are as follows: […]
# E. coli K-12 ML1410 = assay: MIC by standard serial dilution method on Muller-Hinton's agar; type: cell-based; details: Escherichia coli, K12ML1410; Table 3; 27° C., 18 hours
# Protocol: (§1) Minimum growth inhibitory concentrations (MIC) of each of 2"-amino-2"-deoxyarbekacin (Compound Ia), 2"-amino-5,2"-dideoxyarbekacin (Compound Ib), 2"-amino-2"-deoxydibekacin (Compound IIa) and 2"-amino-5,2"-dideoxydibekacin (Compound IIb) against various bacteria (20 strains) and against clinically isolated strains of MRSA (50 strains) were determined by standard serial dilution method on Muller-Hinton's agar medium (as estimated after cultivating at 27° C. for 18 hours), and the test results obtained are shown in TABLE 3 and TABLE 4, respectively.
# B. cereus ATCC10702 = assay: as above; type: cell-based; details: Bacillus cereus, ATCC10702, 18 h
# Protocol: as §1
# Proteus vulgaris OX19 = assay: as above; type: cell-based; details: 18 hours, read-out: MIC
# Protocol: as §1
# (§2) Minimum growth inhibitory concentrations (MIC) of each of 2"-amino-5,2"-dideoxy-5-epi-fluoroarbekacin (Compound XVIa) and 2"-amino-5,2"-dideoxy-5-epi-aminoarbekacin (Compound XVIb) against various bacteria (18 strains) and against clinically isolated strains of MRSA (50 strains) were determined by standard serial dilution method on Muller-Hinton's agar medium (as estimated after cultivation at 27° C. for 18 hours), and the test results obtained are shown in TABLE 5 and TABLE 6, respectively.
# E. coli K-12 LA290 R55 = assay: as above; type: cell-based; details: Escherichia coli, K12LA290R55, 18 h
# Protocol: as §1, §2
# P. aeruginosa H9 = assay: as above; type: cell-based; details: Pseudomonas aeruginosa
# Protocol: as §1, §2
# [2] = system: Staphylococcus aureus FDA209P; assay: as above; type: cell-based; details: 18 hours
# Protocol: as §1, §2
# E. coli K-12 ML1629 = assay: as above; type: cell-based; details: Escherichia coli
# Protocol: as §1, §2
# [3] = system: Providencia rettgeri GN311; assay: as above; type: cell-based; details: 18 hours, read-out: MIC
# Protocol: as §1, §2
# Escherichia coli NIHJ = assay: as above; type: cell-based; details: 18 hours
# Protocol: as §1, §2
# E. coli JR66/W677 = assay: as above; type: cell-based; details: Escherichia coli, JR66/W677, 18 h
# Protocol: as §1, §2
# P. aeruginosa TI-13 = assay: as above; type: cell-based; details: Pseudomonas aeruginosa
# Protocol: as §1, §2
# Serratia marcescens = assay: as above; type: cell-based
# Protocol: as §1, §2
# S. epidermidis 109 = assay: as above; type: cell-based; details: Staphylococcus epidermidis, 109, 27° C., 18 hours, read-out: MIC
# Protocol: as §1, §2
# Salmonella typhi T-63 = assay: as above; type: cell-based; details: Salmonella enterica, 18 hours
# Protocol: as §1, §2
# [4] = system: Klebsiella pneumoniae PCI602; assay: as above; type: cell-based; details: 18 hours, read-out: MIC
# Protocol: as §1, §2
# P. aeruginosa PST1 = assay: as above; type: cell-based; details: Pseudomonas aeruginosa, 18 hours
# Protocol: as §1, §2
# [5] = system: Shigella dysenteriae JSI1910; assay: as above; type: cell-based; details: JSI1910, 18 h
# Protocol: as §1, §2
# [6] = system: Pseudomonas aeruginosa A3; assay: as above; type: cell-based; details: 18 hours, read-out: MIC
# Protocol: as §1, §2
# S. aureus Smith = assay: as above; type: cell-based; details: Staphylococcus aureus, 27° C., 18 hours
# Protocol: as §1, §2
# Bacillus subtilis PCI219 = assay: as above; type: cell-based; details: 18 hours
# Protocol: as §1, §2
# [7] = system: clinically isolated strains of MRSA; assay: Antibacterial MIC spectra against 50 clinically isolated strains of MRSA; type: cell-based, methicillin-resistant Staphylococcus aureus; details: Staphylococcus aureus; for MIC: read-out: Antibacterial MIC spectra; for MIC50: 50% of the 50 MRSA strains inhibited, read-out: MIC50; for MIC90: 90% of the 50 MRSA strains inhibited, read-out: MIC90
# Protocol: as §1
# Note:- MIC50 or MIC90 represents the concentration of tested
# active compound at which 50% or 90% of the total numbers of the bacterial
# strains tested were inhibited from their growth. DKB denotes dibekacin,
# as §2
# Solubility in water = type: physicochemical
# [8] = TI13, Table 5, 27° C., 18 hours, read-out: MIC
Structure (SMILES),LD50 at 336 h [1] [mg/kg],MIC (E. coli K-12 LA290 R55) [µg/mL],MIC (E. coli JR66/W677) [µg/mL],MIC (Serratia marcescens; 18 h) [µg/mL],MIC [5] [µg/mL],"MIC ([7]; MRSA, 18 h) [µg/mL]","MIC50 ([7]; 27° C., 18 hours) [µg/mL]","MIC90 ([7]; 27° C., 18 hours) [µg/mL]",Solubility (Solubility in water),"MIC (Proteus vulgaris OX19; OX19, Table 5, 27° C.) [µg/mL]","MIC (P. aeruginosa H9; H9, 18 h) [µg/mL]","MIC ([2]; Table 5, 27° C.) [µg/mL]","MIC (E. coli K-12 ML1629; K12ML1629, 18 h) [µg/mL]","MIC ([3]; GN311, Table 5, 27° C.) [µg/mL]","MIC (Escherichia coli NIHJ; Table 5, 27° C.) [µg/mL]",MIC (P. aeruginosa TI-13; [8]) [µg/mL],MIC (S. epidermidis 109; Table 5) [µg/mL],"MIC (Salmonella typhi T-63; Table 5, 27° C.) [µg/mL]","MIC ([4]; PCI602, Table 5, 27° C.) [µg/mL]","MIC (P. aeruginosa PST1; Table 5, 27° C.) [µg/mL]",also measured
"NCC[C@H](O)C(=O)N[C@@H]1C[C@H](N)[C@@H](O[C@H]2O[C@H](CN)CC[C@H]2N)[C@H](O)[C@H]1O[C@H]1O[C@H](CO)[C@@H](O)[C@H](N)[C@H]1N [Compound Ia, 2""-Amino-2""-deoxyarbekacin]",> 100,0.78,3.13,3.13,3.13,0.2 to 3.13,0.78,1.56,easily soluble in water,–,–,–,–,–,–,–,–,–,–,–,"MIC (E. coli K-12 ML1410): 1.56 µg/mL; MIC (B. cereus ATCC10702): 3.13 µg/mL; MIC (Proteus vulgaris OX19; OX19, Table 3, 27° C.): 1.56 µg/mL; MIC (P. aeruginosa H9; H9, Table 3, 27° C., 18 hours, read-out: MIC): 6.25 µg/mL; MIC ([2]; Table 3, 27° C.): 0.39 µg/mL; MIC (E. coli K-12 ML1629; K12ML1629, Table 3, 27° C., 18 hours, read-out: MIC): 3.13 µg/mL; MIC ([3]; GN311, Table 3, 27° C.): 1.56 µg/mL; MIC (Escherichia coli NIHJ; Table 3, 27° C.): 0.78 µg/mL; MIC (P. aeruginosa TI-13; TI13, 18 h): 3.13 µg/mL; MIC (S. epidermidis 109; Table 3): 0.78 µg/mL; MIC (Salmonella typhi T-63; Table 3, 27° C.): 0.78 µg/mL; MIC ([4]; PCI602, Table 3, 27° C.): 1.56 µg/mL; MIC (P. aeruginosa PST1; Table 3, 27° C.): 12.5 µg/mL; MIC ([6]; A3, Table 3, 27° C.): 1.56 µg/mL; MIC (S. aureus Smith; Table 3): ≤ 0.2 µg/mL; MIC (Bacillus subtilis PCI219; Table 3, 27° C.): 0.2 µg/mL"
"NCC[C@H](O)C(=O)N[C@@H]1C[C@H](N)[C@@H](O[C@H]2O[C@H](CN)CC[C@H]2N)[C@@H](F)[C@H]1O[C@H]1O[C@H](CO)[C@@H](O)[C@H](N)[C@H]1N [Compound XVIa, 2""-Amino-5,2""-dideoxy-5-epi-fluoroarbekacin]",> 100,1.56,3.13,–,3.13,0.39 to 3.13,0.78,1.56,easily soluble in water,1.56,3.13,0.78,3.13,1.56,0.78,1.56,0.78,0.78,1.56,12.5,"MIC (Serratia marcescens; Table 5, 27° C., 18 hours, read-out: MIC): 1.56 µg/mL; MIC ([6]; A3, Table 5, 27° C.): 0.78 µg/mL; MIC (S. aureus Smith; Table 5): ≤ 0.2 µg/mL; MIC (Bacillus subtilis PCI219; Table 5, 27° C.): 0.39 µg/mL"
"NCC[C@H](O)C(=O)N[C@@H]1C[C@H](N)[C@@H](O[C@H]2O[C@H](CN)CC[C@H]2N)[C@@H](N)[C@H]1O[C@H]1O[C@H](CO)[C@@H](O)[C@H](N)[C@H]1N [Compound XVIb, 2""-amino-5,2""-dideoxy-5-epi-aminoarbekacin]",> 100,1.56,3.13,3.13,3.13,–,0.78,1.56,easily soluble in water,1.56,3.13,≤ 0.2,1.56,1.56,0.78,1.56,0.39,0.78,1.56,6.25,"MIC ([6]; A3, Table 5, 27° C.): 0.39 µg/mL; MIC (S. aureus Smith; Table 5): ≤ 0.2 µg/mL; MIC (Bacillus subtilis PCI219; Table 5, 27° C.): ≤ 0.2 µg/mL; MIC ([7]; range over 50 clinically isolated strains of MRSA, 27° C., 18 hours): 0.39 to 1.56 µg/mL"
"NC[C@@H]1CC[C@@H](N)[C@@H](O[C@H]2[C@H](O)[C@@H](O[C@H]3O[C@H](CO)[C@@H](O)[C@H](N)[C@H]3O)[C@H](N)C[C@@H]2N)O1 [DKB, 3',4'-dideoxykanamycin B, reference compound]",–,–,–,–,–,–,50,> 100,–,–,–,–,–,–,–,–,–,–,–,–,–
